Results on one substance are retold here after patent US7378438B2, “Beta-agonist compounds comprising nitric oxide donor groups and reactive oxygen species scavenger groups and their use in the treatment of respiratory disorders” (Yissum Research Development Company of the Hebrew …, priority 2002, dated 2008).

Assay [1] relates to tracheal rings. Nature of the assay: Relaxation studies on pre-contracted tracheal rings. In kind it is cell-based, guinea pigs. As to conditions: FIG. 1; tracheal rings contracted with methacholine, histamine or leukotriene D4; compared with salbutamol and compound 2a. The protocol:
The assays as described here are also described in, for example, U.S. Pat. No. 4,992,474 and Jansen et al.(1992) J. Pharmacol. Exptl. TherapeuticsI 261(1):154-160.
(§1) Male Hartley guinea pigs (500-600 g) were anesthetized by intraperitoneal injection of ketamine and xylazine (50 and 10 mg/kg, respectively). The heart and lungs were excised en bloc and tracheas were removed and placed in Krebs-Henseleit buffer composed of (mM): NaCl 118, KCl 5.4, NaH2PO4 1.01, NaHCO3 25, MgSO4 0.69, […], glucose 11.1, pH 7.4. Tracheas were then dissected free from surrounding fat and connective tissue and cut into 1-2-mm thick rings. The tracheal rings were then placed in buffer and continuously gassed with 95% O2 and 5% CO2.
Tracheal rings were suspended on stainless steel hooks in 10 ml of oxygenated (95% O2, 5% CO2) Krebs-Henseleit buffer at 37° C. and connected to transducer (Experimetria Model) for recording changes in isometric force. The tracheal rings were equilibrated for 60 min under a load of 1 g and then primed twice by exposure to 100 μM methacholine. Tissues were contacted with methacholine, histamine, or leukotriene D4 at concentrations determined to approximately generate 50% of maximal tone, after which cumulative relaxation-response curves were constructed. […]

Assay [2] has as its system NO-guanylyl cyclase pathway. Kind of assay: Cyclic nucleotide (cGMP) assay in tracheal rings. The assay is classed as cell-based, guinea pigs. As to conditions: FIG. 2. The protocol:
as §1
Tracheal rings in Krebs-Heneseleit solution were exposed to a 5-100 μM of the test compound for 30-90 seconds. Reaction was terminated by the addition of ice-cold 10% trichloroacetic acid and rapidly frozen in ethanol-saturated dry ice. In the methylene blue experiment, rings were pre-exposed methylene blue, a guanylyl cyclase inhibitor, for 30 min. Tissues were then individually pulverized with a glass homogenizer and centrifuged at 8000×g for 5 min. The clear supernatant was extracted with water-saturated ether and assayed for cGMP using commercially available radioimmunoassay kits as described by the manufacturer (Amersham Biosciences, Piscataway, N.J.).

For “5-(2-tert-Butylamino-1-S-nitroso-ethyl)-1,1,3,3-tetramethyl-isoindolin-2-yloxyl [compound 2]”, in assay [1], the “relaxation response (relax. %) versus log of concentration” value is listed as “more effective relaxant compound than either salbutamol or the non-nitrosolated precursor of compound 2, compound 2a”. Besides, in assay [2] (5-100 μM test compound for 30-90 seconds, radioimmunoassay, compared with control and salbutamol), the “cGMP response of tracheal rings” value is listed as “elevates the production of cGMP”. In addition, the “cGMP response of tracheal rings in the presence of methylene blue (MB)” value in assay [2] (rings pre-exposed to methylene blue, a guanylyl cyclase inhibitor, for 30 min) is given as “reduces the efficacy of compound 2”.
